According to patent US20240277705A1, “DOSAGE REGIMENS FOR ECUBECTEDIN” (PHARMA MAR S.A., priority 2021, published 2024):

Test system: patients with advanced solid tumors
Assay: Phase I dose-escalating study, safety and dose limiting toxicities
Format: in vivo
Conditions: for maximum tolerated dose: 3-hour i.v. infusion
Source text: Primary Study Objectives • Dose escalation phase: To identify the dose limiting toxicities (DLTs), and to determine the maximum tolerated dose (MTD) and the recommended dose (RD) of PM14 administered intravenously (i.v.) on two days (Day 1 and Day 8) or on Day 1 only, both every three weeks (q3wk) over three hours to patients with advanced solid tumors.
First-in-human, open-label, dose-finding, phase I trial, using a classical 3+3 design followed by a continual reassessment method (CRM) (see Dose Escalation Schedule, below).
Patients will be included in cohorts of a minimum of three or six patients to receive PM14 at successively increasing dose levels, starting at 0.25 mg/m2 for the Days 1 and 8 schedule. For the Day 1 schedule, the starting dose will be 4.5 mg/m^2.
Open-label, dose-escalating, phase I trial of PM14 administered as a 3-hour infusion i.v. every 3 weeks (q3wk) in human patients (pts) with advanced solid tumors, adequate organ function and ECOG PS score of 0-1. Two schedules were explored: Schedule A (Day 1 [D1], Day 8 [D8]) and Schedule B (D1).
Determination of MTD and RD: the MTD will be the lowest dose level explored during dose escalation in which one third or more of evaluable patients develop a DLT in Cycle 1. The CRM could be used to define the RD.
Secondary Endpoints • Safety: patients will be evaluable for safety if they have received at least one partial infusion of PM14. AEs will be graded according to the NCI-CTCAE v.4. Additionally, treatment-related discontinuations and treatment compliance (dose reduction, skipped doses and/or treatment delays due to AEs), will be described. • Pharmacokinetics: PK analyses will be evaluated in plasma and urine by standard non-compartmental analysis (compartmental modeling may be performed if appropriate). Plasma samples for PM14 PK analysis will be obtained in Cycle 1 from all patients, and also in Cycle 2 from patients treated during Step D of the CRM. In addition, the urine produced during Day 1 of Cycle 1 and Cycle 2 will be collected from patients treated during Step D of the CRM. • Pharmacogenetics: the presence or absence of PGt polymorphisms in genes relevant for PM14 disposition (distribution, metabolism and excretion) from a single blood sample collected at any time during the trial (but preferably at the same time as the pre-treatment PK sample on Day 1 of Cycle 1) will be assessed to explain individual variability in main PK parameters. • Pharmacogenomics: this exploratory analysis will be performed in those patients who sign the Informed Consent Form (ICF) for the PGx study. mRNA or protein expression levels of factors involved in DNA repair mechanisms, or related to the mechanism of action of PM14, will be evaluated from available tumor tissue samples obtained at diagnosis or relapse and in cell-free ctDNA. Their mutational status might also be analyzed, if relevant. Their correlation with the clinical response and outcome after treatment will be assessed. • Efficacy: patients will be evaluable for efficacy if they receive at least one complete infusion of PM14 and have at least one clinical or radiological tumor assessment as per RECIST v.1.1 or serum markers, or if they are considered to have failed treatment. Treatment failure will be defined as clinical deterioration, death due to PD or treatment discontinuation due to any treatment-related toxicity before any appropriate tumor assessments have been performed. […]

[1] = Schedule A D1,D8, 3.0 mg/m^2 (n: 9)
[2] = Schedule A D1,D8, <3.0 mg/m^2 (n: 14)
[3] = Schedule A D1,D8, >3.0 mg/m^2 (n: 5)
[4] = Schedule B D1, 4.5 mg/m^2 (n: 6)
[5] = Schedule B D1, 5.6 mg/m^2 (n: 3)

## COc1c(C)cc2c(c1O)[C@@H]1[C@@H]3[C@@H]4SC[C@]5(N[C@H](CO)Cc6c5[nH]c5ccccc65)C(=O)OC[C@@H](c5c6c(c(C)c(OC(C)=O)c54)OCO6)N3[C@@H](O)[C@H](C2)N1C [PM14, ECUBECTEDIN]
3.0 mg/n^2 D1,D8 (A) and 4.5 mg/n^2 D1 (B)
  DLTs at the RDs: No DL-Ts
Schedule A (D1, D8 q3wk)
  maximum tolerated dose: 4.5 mg/m^2
[1]
  ALT increase Gr 1-2, (%): (55.6%)
  ALT increase Gr 3, (%): (11.1%)
  AST increase Gr 1-2, (%): (77.8%)
  Anemia Gr 1-2, (%): (77.8%)
  Anemia Gr 3, (%): (11.1%)
  CPK increase Gr 1-2, (%): (22.2%)
  Diarrhoea Gr 1-2, (%): (11.1%)
  Nausea Gr 1-2, (%): (11.1%)
  Neutropenia Gr 1-2, (%): (11.1%)
  Neutropenia Gr 3, (%): (11.1%)
  Neutropenia Gr 4, (%): (11.1%)
  Vomiting Gr 1-2, (%): (11.1%)
  Vomiting Gr 3, (%): (11.1%)
[2]
  ALT increase Gr 1-2, (%): (35.7%)
  AST increase Gr 1-2, (%): (21.4%)
  Anemia Gr 1-2, (%): (85.7%)
  CPK increase Gr 1-2, (%): (42.9%)
  Constipation Gr 1-2, (%): (7.1%)
  Decreased appetite Gr 1-2, (%): (7.1%)
  Diarrhoea Gr 1-2, (%): (14.3%)
  Fatigue Gr 1-2, (%): (28.6%)
  Nausea Gr 1-2, (%): (42.9%)
  Neutropenia Gr 1-2, (%): (14.3%)
  Vomiting Gr 1-2, (%): (42.9%)
[3]
  ALT increase Gr 1-2, (%): (60.0%)
  ALT increase Gr 3, (%): (40.0%)
  AST increase Gr 1-2, (%): (100.0%)
  Anemia Gr 1-2, (%): (80.0%)
  Anemia Gr 3, (%): (20.0%)
  Constipation Gr 1-2, (%): (60.0%)
  Decreased appetite Gr 1-2, (%): (40.0%)
  Diarrhoea Gr 1-2, (%): (20.0%)
  Fatigue Gr 1-2, (%): (40.0%)
  Fatigue Gr 3, (%): (20.0%)
  Nausea Gr 1-2, (%): (80.0%)
  Neutropenia Gr 1-2, (%): (20.0%)
  Neutropenia Gr 4, (%): (40.0%)
  Vomiting Gr 1-2, (%): (60.0%)
Schedule A, on D1,D8
  recommended dose (RD): 3.0 mg/n^2
Schedule B (D1 q3wk)
  maximum tolerated dose: 5.6 mg/rn^2
[4]
  ALT increase Gr 1-2, (%): (66.7%)
  ALT increase Gr 3, (%): (33.3%)
  AST increase Gr 1-2, (%): (50.0%)
  AST increase Gr 4, (%): (16.1%)
  Anemia Gr 1-2, (%): (83.3%)
  CPK increase Gr 1-2, (%): (33.3%)
  Decreased appetite Gr 1-2, (%): (16.7%)
  Fatigue Gr 1-2, (%): (50.0%)
  Headache Gr 1-2, (%): (16.7%)
  Nausea Gr 1-2, (%): (50.0%)
  Neutropenia Gr 3, (%): (16.7%)
  Neutropenia Gr 4, (%): (16.7%)
  Vomiting Gr 1-2, (%): (16.7%)
[5]
  ALT increase Gr 1-2, (%): (66.7%)
  ALT increase Gr 4, (%): (33.3%)
  AST increase Gr 1-2, (%): (33.3%)
  AST increase Gr 4, (%): (33.3%)
  Anemia Gr 1-2, (%): (33.3%)
  Anemia Gr 3, (%): (66.7%)
  CPK increase Gr 1-2, (%): (66.7%)
  Fatigue Gr 1-2, (%): (33.3%)
  Febrile neutropenia Gr 4, (%): (33.3%)
  Neutropenia Gr 1-2, (%): (33.3%)
  Neutropenia Gr 3, (%): (33.3%)
  Neutropenia Gr 4, (%): (33.3%)
Schedule B, on D1
  recommended dose (RD): 4.5 mg/n^2
Patients with advanced solid tumors
  tolerability at the RDs: well tolerated
